Assay results from PMC11279411, “Structure-Based Identification of Novel Histone Deacetylase 4 (HDAC4) Inhibitors” (Pharmaceuticals, 2024).
Where two headings read alike, the source gives them in different places.

Tests used:
HDAC3 = HDAC3 (Homo sapiens, UniProt O15379); test: HDAC3 fluorogenic activity assay (BPS Bioscience kit); settings: for decrease of HDAC3 activity / relative percent activity of HDAC3 (activity retained): 100 μM compound; for relative percent activity of HDAC3 (activity retained): compared to absence of inhibitor
Procedure: (§2) HDAC3 and HDAC4 activity assays were performed using fluorogenic assay kits obtained from BPS Bioscience (San Diego, CA, USA) by following the protocol that is supplied by the manufacturer. Briefly, purified enzyme (40 pg/μL HDAC3 or 1.2 pg/μL HDAC4) in a total of 50 μL buffer containing 0.1% BSA was incubated with substrate (20 μM for HDAC3 and 2 μM for HDAC4) at 37 °C for 30 min in a 96-well plate. A fluorescence developer (50 μL) was added and the plate was incubated at room temperature for a further 15 min. The activity of the enzymes in the absence and presence of compounds was measured on a BioTek Cytation 5 plate reader, exciting the samples at 350 nm and measuring emission at 450 nm. Compounds were prepared as 10 mM stocks in DMSO, diluted to 1 mM in 20 mM NaHEPES, 150 mM NaCl, pH 7.4 buffer, and were screened at 100 μM in the assays at least in duplicate. A positive control with 1% DMSO added in lieu of an inhibitor and a negative control without enzyme were also prepared in each assay plate. The negative control was subtracted from all fluorescence values, while the positive control was used as the reference for 100% activity of the enzyme.

HDAC4 = HDAC4 (Homo sapiens, UniProt P56524); test: HDAC4 fluorogenic activity assay (BPS Bioscience kit); settings: for relative percent activity of HDAC4 (activity retained): 100 μM compound, compared to absence of inhibitor; for IC50 fold lower for HDAC4 than HDAC3: selectivity HDAC4 over HDAC3 from IC50 values
Procedure: as §2

[1] = test system: transitional urothelial carcinoma SW780 cell line; test: MTT cell viability assay, SW780; settings: Homo sapiens; for IC50 / viability at 100 µM: SW780, 48 h; for IC50: read-out: IC50 (cell viability); for viability at 100 µM: read-out: Relative cell viability
Procedure: (§1) Cell viability assays were determined using Methyl Thiazolyl Tetrazolium (MTT) assay (Travigen, Gaithersburg, MD, USA). A total of 5 × 10^3 SW780 (human transitional urinary bladder cancer cell line) or 1 × 10^4 (human triple-negative breast cancer cell line MDA-MB231, American Type Culture Collection [ATCC], Rockville, MD, USA) in 100 µL of culture media were seeded to each well of 96-well culture plates. These cell lines were chosen based on previous work. The MDA-MB231 and SW780 cell lines were cultured in Dulbecco’s modified Eagle’s medium (DMEM) with 10% or 5% heat-inactivated fetal bovine serum, respectively, 100 U/mL penicillin, and 100 µg/mL streptomycin. Cultures were maintained in 5% CO2 at 37 °C and subcultured every 2–3 days. At 24 h after seeding, cells were treated with various concentrations of potential HDAC inhibiting compounds for 48 h (100 µM for initial screening, […], 1, 10, 100, 250, and 500 µM for the dose–response experiment). Subsequently, 10 µL of MTT reagent was added to each well and incubated for 4 h, followed by the addition of 100 µL of detergent reagent. The plate was incubated overnight. The reduced MTT reagent in cultures was measured at 570 nm by using an ELISA reader (Bio-Tek, Winooski, VT, USA). The IC50 for each compound was calculated from fitted nonlinear regression dose–response curves.

[2] = test system: human breast carcinoma MDA-MB231 cell line; test: MTT cell viability assay, MDA-MB231; settings: for IC50 / viability at 100 µM: MDA-MB-231, 48 h; for IC50: read-out: IC50 (cell viability); for viability at 100 µM: read-out: Relative cell viability
Procedure: as §1

[3] = read-out: IC50 (μM) for HDAC3, highest concentration 500 μM
[4] = read-out: IC50 (μM) for HDAC4, highest concentration 500 μM

Chain of HDAC4 (P56524 whole entry): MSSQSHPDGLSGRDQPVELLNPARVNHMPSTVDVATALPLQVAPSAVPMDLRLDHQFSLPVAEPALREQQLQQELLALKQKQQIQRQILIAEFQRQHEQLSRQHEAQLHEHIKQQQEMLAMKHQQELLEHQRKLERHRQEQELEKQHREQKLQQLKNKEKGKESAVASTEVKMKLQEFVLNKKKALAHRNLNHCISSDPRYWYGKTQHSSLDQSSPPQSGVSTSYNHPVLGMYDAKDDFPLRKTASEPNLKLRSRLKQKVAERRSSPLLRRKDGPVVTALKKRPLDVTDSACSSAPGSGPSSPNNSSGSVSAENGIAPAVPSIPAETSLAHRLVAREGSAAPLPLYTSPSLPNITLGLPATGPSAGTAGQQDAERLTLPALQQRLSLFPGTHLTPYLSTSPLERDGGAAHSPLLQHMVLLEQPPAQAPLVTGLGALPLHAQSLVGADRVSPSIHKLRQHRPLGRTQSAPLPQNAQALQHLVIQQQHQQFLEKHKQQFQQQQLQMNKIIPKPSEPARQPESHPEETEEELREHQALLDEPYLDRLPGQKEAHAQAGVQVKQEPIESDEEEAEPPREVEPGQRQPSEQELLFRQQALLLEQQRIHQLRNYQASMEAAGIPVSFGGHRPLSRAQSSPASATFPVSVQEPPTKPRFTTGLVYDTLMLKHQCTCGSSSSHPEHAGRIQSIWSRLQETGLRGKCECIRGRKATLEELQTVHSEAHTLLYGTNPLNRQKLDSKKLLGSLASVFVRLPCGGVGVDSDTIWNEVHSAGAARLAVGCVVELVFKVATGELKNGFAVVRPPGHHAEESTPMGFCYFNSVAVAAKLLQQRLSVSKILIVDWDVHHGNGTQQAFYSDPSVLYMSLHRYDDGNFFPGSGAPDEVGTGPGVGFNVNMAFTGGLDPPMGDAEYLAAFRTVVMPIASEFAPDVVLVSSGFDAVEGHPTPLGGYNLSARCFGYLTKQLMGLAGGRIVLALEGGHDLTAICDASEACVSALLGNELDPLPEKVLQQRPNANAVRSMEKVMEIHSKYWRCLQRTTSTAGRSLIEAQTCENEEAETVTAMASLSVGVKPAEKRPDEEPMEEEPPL
Chain of HDAC3 (O15379 whole entry): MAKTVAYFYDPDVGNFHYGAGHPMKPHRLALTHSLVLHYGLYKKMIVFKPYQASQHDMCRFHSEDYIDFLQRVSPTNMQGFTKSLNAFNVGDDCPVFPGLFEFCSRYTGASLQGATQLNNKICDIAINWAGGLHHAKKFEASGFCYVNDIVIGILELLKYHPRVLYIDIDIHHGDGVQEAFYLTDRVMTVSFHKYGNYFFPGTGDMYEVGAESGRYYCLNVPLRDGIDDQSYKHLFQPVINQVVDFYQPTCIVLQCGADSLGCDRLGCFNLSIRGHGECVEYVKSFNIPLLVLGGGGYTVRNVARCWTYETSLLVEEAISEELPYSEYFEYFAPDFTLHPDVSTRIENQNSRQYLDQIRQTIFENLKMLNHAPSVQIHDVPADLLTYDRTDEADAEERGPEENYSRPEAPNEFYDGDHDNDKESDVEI
Chain of HDAC3 (Q9Y618 395-489 partner limits assumed): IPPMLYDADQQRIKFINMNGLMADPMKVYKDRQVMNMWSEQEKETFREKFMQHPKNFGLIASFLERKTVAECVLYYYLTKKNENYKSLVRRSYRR

| SMILES | IC50 (HDAC3; [3]) [µM] | IC50 (HDAC3) [µM] | IC50 [1] [µM] | IC50 ([2]; Homo sapiens) [µM] | viability at 100 µM ([2]; Homo sapiens) [%] | relative percent activity of HDAC4 (activity retained) (HDAC4) | also measured |
| --- | --- | --- | --- | --- | --- | --- | --- |
| O=[N+]([O-])c1cc(-c2cccnc2)n[nH]1 [Compound 4135] | > 500 | – | – | – | – | – | IC50 (HDAC4; [4]): 410 ± 240 µM |
| COc1cccc2c1cc([N+](=O)[O-])c1c(C(=O)O)cc3c(c12)OCO3 [Compound 11926] | – | > 500 | 223 ± 49 | 126 ± 10 | < 60 | – | viability at 100 µM [1]: < 50%; viability at 500 µM ([1]; SW780, read-out: cell viability): 45%; viability at 500 µM ([2]; Homo sapiens, MDA-MB-231, read-out: cell viability): 9% |
| CN(C)c1ncnc2c1ncn2-c1ccccc1 [Compound 34488] | > 500 | – | – | – | – | unchanged | decrease of HDAC3 activity (HDAC3): 50% |
| CC12CCC(C(NC(=S)NN)C1=O)C2(C)C (centres unmarked) [Compound 36425] | > 500 | – | – | – | – | – | IC50 (HDAC4; [4]): 480 ± 260 µM |
| CCCn1cnc2c(Sc3c([N+](=O)[O-])ncn3C)nc(N)nc21 [Compound 44584] | – | > 500 | 213 ± 13 | 137 ± 18 | < 60 | unchanged | decrease of HDAC3 activity (HDAC3): 60% |
| O=C(CN1CCOCC1)N1CCOCC1 [Compound 51936] | > 500 | – | – | – | – | – | IC50 (HDAC4; [4]): 550 ± 350 µM |
| CCOC(=O)C1C(=O)C(=O)N(C(C)C)C1C(=O)OCC (centres unmarked) [Compound 55172] | > 500 | – | – | – | – | – | – |
| O=C(Nc1ccc(C2=NCCN2)cc1)c1ccc(Cl)c(C(=O)Nc2ccc(C3=NCCN3)cc2)c1 [Compound 67436] | – | 9.2 ± 5.2 | 131 ± 26 | 138 ± 23 | < 60 | ≤ 40% | relative percent activity of HDAC3 (activity retained) (HDAC3): ≤ 40%; HDAC3 IC50 relative to that for HDAC4 (HDAC3; selectivity HDAC3 over HDAC4 from IC50 values): five times lower; viability at 100 µM [1]: < 50%; IC50 (HDAC4): 47 ± 28 µM |
| CCOC(=O)C(=CNc1ccccc1Cl)C(=O)OCC [Compound 79887] | > 500 | – | – | – | – | – | – |
| COc1ccc2c(c1)NP(=S)(Oc1ccccc1)N2 (centres unmarked) [Compound 88402] | – | 210 ± 60 | – | – | – | < 40% | relative percent activity of HDAC3 (activity retained) (HDAC3): 75%; IC50 (HDAC4): 100 ± 40 µM; IC50 fold lower for HDAC4 than HDAC3 (HDAC4): at least 2 fold; Relative cell viability ([2]; MDA-MB231, 100 µM compound, 48 h, untreated cells = 100%): did not show activity |
| NS(=O)(=O)c1ccc(N=Nc2ccc(=O)[nH]c2O)cc1 [Compound 134199] | 25 ± 7 | – | – | – | – | ≤ 40% | relative percent activity of HDAC3 (activity retained) (HDAC3): ≤ 40%; IC50 (HDAC4; [4]): 33 ± 12 µM; Relative cell viability ([2]; 100 µM): little potency |
| NC(=S)NN=Cc1cc(-c2cccc(N)c2)ccn1 [Compound 195327] | – | > 500 | 89 ± 48 | 37 ± 17 | < 60 | unchanged | decrease of HDAC3 activity (HDAC3): 80%; IC50 (μM) for HDAC3 (HDAC3; highest concentration 500 μM): no inhibition; viability at 100 µM [1]: < 50%; IC50 (μM) for HDAC4 (HDAC4; highest concentration 500 μM): did not inhibit |
| CCOC(=O)C(=NO)C1=CSC2=NNC(C)(C)N12 [Compound 299968] | – | > 500 | 300 ± 17 | 113 ± 19 | < 60 | – | IC50 (HDAC4): 250 ± 170 µM; IC50 fold lower for HDAC4 than HDAC3 (HDAC4): at least 2 fold |
| COc1cc(C2NC(=O)C(C#N)=C(Nc3cccc(C)c3)S2)ccc1O (centres unmarked) [Compound 319435] | – | > 500 | – | – | – | – | IC50 (HDAC4): 150 ± 50 µM; IC50 fold lower for HDAC4 than HDAC3 (HDAC4): at least 2 fold |
